Where a SMILES comes first, the peptide text is derived from it. The star is where a group is joined. Cbz = O=C(OCc1ccccc1)*

The target in one experiment is T1, MDMX (Homo sapiens, UniProt O15151).
T1 construct: endogenous in cells; host or cells: WERI-Rb-1 (ATCC)
T1 sequence (O15151 1-490): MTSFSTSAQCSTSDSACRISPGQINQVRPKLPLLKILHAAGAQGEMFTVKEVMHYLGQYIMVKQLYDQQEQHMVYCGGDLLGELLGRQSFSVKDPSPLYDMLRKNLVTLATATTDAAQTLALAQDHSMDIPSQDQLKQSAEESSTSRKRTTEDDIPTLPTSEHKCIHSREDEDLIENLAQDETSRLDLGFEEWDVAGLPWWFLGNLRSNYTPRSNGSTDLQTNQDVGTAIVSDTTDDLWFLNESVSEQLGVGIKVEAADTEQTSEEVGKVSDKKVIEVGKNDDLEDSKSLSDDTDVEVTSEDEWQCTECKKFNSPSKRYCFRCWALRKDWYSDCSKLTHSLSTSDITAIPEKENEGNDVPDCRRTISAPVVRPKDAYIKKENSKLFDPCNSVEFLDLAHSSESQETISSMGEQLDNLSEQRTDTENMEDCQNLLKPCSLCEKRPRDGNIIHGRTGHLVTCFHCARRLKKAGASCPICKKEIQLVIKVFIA
Kind of experiment: MDMX degradation by western blot. As to conditions: 200 nM Nano-MP@PSI, 12-hour preincubation of inhibitor. The format is cell-based. From the text:
The protein fraction of cell lysates was resolved by 10%SDS/PAGE before membrane
transfer. Primary antibodies were from Santa Cruz Biotechnology (p53), Abcam (p73), Proteintech
(MDMX，p21, GAPDH); secondary antibodies conjugated with horseradish peroxidase were from […]
Regarding `CCOC(=O)c1ccc(N2NC(=O)/C(=C/c3ccc([N+](=O)[O-])o3)C2=O)cc1` [PYR41], the “Effect on MDMX degradation by Nano-MP@PSI” value is recorded as “totally inhibits”. Same read-out and setting: for `CCN(CC)CCCC(C)Nc1ccnc2cc(Cl)ccc12` (stereo not drawn) [chloroquine] the value was “neither a chloroquine (a lysosome inhibitor) nor NH4Cl (an autophagy inhibitor) had any effect”; for `Cl.N` [NH4Cl], “neither a chloroquine (a lysosome inhibitor) nor NH4Cl (an autophagy inhibitor) had any effect”; for `CC(C)C[C@@H](C=O)NC(=O)[C@H](CC(C)C)NC(=O)[C@H](CC(C)C)NC(=O)OCc1ccccc1` [MG132] (Cbz-Leu-Leu-Leu-aldehyde), “totally inhibits”.

For a further experiment, the system named is WERI-Rb-1 cells. Kind of experiment: Cell uptake analysis by flow cytometry (FITC-labelled). The format is cell-based. As to conditions: pH 6.5; 3 mM Amiloride, 2 μM cytochalasin D. In general terms: In flow cytometry, cells or beads pass a laser one at a time.
`N=C(N)NC(=O)c1nc(Cl)c(N)nc1N` [Amiloride]: the “Effect of preincubation on Nano-FITCMG@PSI internalization” value is on record as “suppressed”. Still for that read-out and setting: in the case of `C=C1[C@@H](C)[C@H]2[C@H](Cc3ccccc3)NC(=O)[C@]23[C@H](OC(C)=O)/C=C/[C@@](C)(O)C(=O)[C@@H](C)C/C=C/[C@H]3[C@@H]1O` [cytochalasin D] it was “suppressed”.

Values taken from paper PMC8171083, “A nano-predator of pathological MDMX construct by clearable supramolecular gold(I)-thiol-peptide complexes achieves safe and potent anti-tumor activity” (Theranostics, 2021).
